Activity calls are given as the source filed them. The rule behind the calls is not given here.
Columns and labels:
[1] = test system: A549; assay: Inhibition of TGF-beta1 induced epithelial-mesenchymal transition in human A549 cells assessed as reduction in CALD1 level AT 5 AND 10 uM incubated for 48 hrs by qRT-PCR method; type: functional, cell-based
[2] = test system: A549; assay: Inhibition of TGF-beta1 induced epithelial-mesenchymal transition in human A549 cells assessed as reduction in SNAI1 level AT 5 AND 10 uM incubated for 48 hrs by qRT-PCR method; type: functional, cell-based
[3] = test system: A549; assay: Inhibition of TGF-beta1 induced epithelial-mesenchymal transition in human A549 cells assessed as reduction in ITGA5 level AT 5 AND 10 uM incubated for 48 hrs by qRT-PCR method; type: functional, cell-based
[4] = test system: A549; assay: Cytotoxicity against human A549 cells assessed as cell viability at 1 to 25 uM after 48 hrs by WST-8 staining based CCK8 assay; details: a549, 48 h
[5] = test system: A549; assay: Inhibition of TGF-beta1 induced epithelial-mesenchymal transition in human A549 cells assessed as reduction in nuclear SMAD2 level preincubated for 2 hrs by Western blot method; type: functional, cell-based
[6] = test system: A549; assay: Inhibition of TGF-beta1-induced upregulation of mesenchymal marker N-cadherin expression in human A549 cells at 5 to 10 uM preincubated for 2 hrs by Western blot method; type: functional, cell-based
[7] = test system: A549; assay: Inhibition of TGF-beta1 response promoter transactivation mediated SMAD2 and SMAD3 phosphorylation in human A549 cells at 5 to 10 uM preincubated for 2 hrs by dual luciferase reporter assay; type: functional, cell-based
[8] = test system: A549; assay: Inhibition of TGF-beta1-induced matrix metalloproteinase-9 expression in human A549 cells at 5 to 10 uM preincubated for 2 hrs by Western blot method; type: functional, cell-based
[9] = test system: A549; assay: Inhibition of TGF-beta1 induced cell migration in human A549 cells assessed as reduction in cell surface area incubated for 48 hrs by wound healing assay; type: functional, cell-based
[10] = test system: A549; assay: Inhibition of TGF-beta1-induced upregulation of Snail protein expression in human A549 cells preincubated for 2 hrs by Western blot method; type: functional, cell-based
[11] = test system: A549; assay: Inhibition of TGF-beta1 induced epithelial-mesenchymal transition in human A549 cells assessed as reduction in CDH2 level AT 5 AND 10 uM incubated for 48 hrs by qRT-PCR method; type: functional, cell-based
[12] = test system: A549; assay: Inhibition of TGF-beta1 stimulated invasion in human A549 cells at 5 to 10 uM incubated for 48 hrs by matrigel invasion assay; type: functional, cell-based
[13] = test system: A549; assay: Cytotoxicity against human A549 cells assessed as cell viability at 50 to 100 uM after 48 hrs by WST-8 staining based CCK8 assay; details: a549, 48 h
[14] = test system: A549; assay: Inhibition of TGF-beta1 induced epithelial-mesenchymal transition in human A549 cells assessed as reduction in nuclear phosphorylated SMAD2 level preincubated for 2 hrs by Western blot method; type: functional, cell-based
[15] = test system: A549; assay: Inhibition of TGF-beta1 induced epithelial-mesenchymal transition in human A549 cells assessed as morphological changes at 5 to 10 uM preincubated for 2 hrs followed by TGF-beta1 addition; type: functional, cell-based
[16] = test system: A549; assay: Inhibition of TGF-beta1 induced epithelial-mesenchymal transition in human A549 cells assessed as reduction in PAI1 level AT 5 AND 10 uM incubated for 48 hrs by qRT-PCR method; type: functional, cell-based
[17] = test system: A549; assay: Inhibition of TGF-beta1-induced plasminogen activator inhibitor type 1 expression in human A549 cells assessed at 5 to 10 uM preincubated for 2 hrs by Western blot method; type: functional, cell-based
[18] = test system: A549; assay: Inhibition of TGF-beta1 induced epithelial-mesenchymal transition in human A549 cells assessed as reduction in COL5A2 level AT 5 AND 10 uM incubated for 48 hrs by qRT-PCR method; type: functional, cell-based
[19] = test system: A549; assay: Inhibition of TGF-beta1 induced epithelial-mesenchymal transition in human A549 cells assessed as reduction in SPARC level AT 5 AND 10 uM incubated for 48 hrs by qRT-PCR method; type: functional, cell-based
[20] = test system: A549; assay: Inhibition of TGF-beta1 induced epithelial-mesenchymal transition in human A549 cells assessed as reduction in phosphorylated SMAD3 level preincubated for 2 hrs followed by TGF-beta1 addition by Western blot method; type: functional, cell-based
[21] = test system: A549; assay: Inhibition of TGF-beta1-induced downregulation of epithelial marker E-cadherin expression in human A549 cells at 5 to 10 uM preincubated for 2 hrs by Western blot method; type: functional, cell-based
[22] = test system: A549; assay: Inhibition of TGF-beta1 induced epithelial-mesenchymal transition in human A549 cells assessed as reduction in SNAI2 level AT 5 AND 10 uM incubated for 48 hrs by qRT-PCR method; type: functional, cell-based
[23] = test system: A549; assay: Inhibition of TGF-beta1 induced epithelial-mesenchymal transition in human A549 cells assessed as reduction in nuclear phosphorylated SMAD3 level preincubated for 2 hrs by Western blot method; type: functional, cell-based
[24] = test system: A549; assay: Inhibition of TGF-beta1-induced […] Snail promoter activity in human A549 cells at 5 to 10 uM preincubated for 2 hrs by dual luciferase reporter assay; type: functional, cell-based
[25] = test system: A549; assay: Inhibition of TGF-beta1 induced epithelial-mesenchymal transition in human A549 cells assessed as reduction in […] level AT 5 AND 10 uM incubated for 48 hrs by qRT-PCR method; type: functional, cell-based
[26] = test system: A549; assay: Inhibition of TGF-beta1 induced epithelial-mesenchymal transition in human A549 cells assessed as reduction in phosphorylated SMAD2 level preincubated for 2 hrs followed by TGF-beta1 addition by Western blot method; type: functional, cell-based
[27] = test system: A549; assay: Inhibition of TGF-beta1 induced epithelial-mesenchymal transition in human A549 cells assessed as reduction in nuclear SMAD3 level preincubated for 2 hrs by Western blot method; type: functional, cell-based

How did the inhibition [1] turn out when `O=C(O[C@@H]1O[C@@H]2COC(=O)c3cc(O)c(O)c(O)c3-c3c(cc(O)c(O)c3O)C(=O)O[C@H]2[C@@H]2OC(=O)c3cc(O)c(O)c(O)c3-c3c(cc(O)c(O)c3O)C(=O)O[C@H]12)c1cc(O)c(O)c(Oc2c(O)c(O)c(O)c3c2C(=O)O[C@H]2[C@@H]4OC(=O)c5cc(O)c(O)c(O)c5-c5c(cc(O)c(O)c5O)C(=O)O[C@@H]4[C@@H](OC(=O)c4cc(O)c(O)c(O)c4)O[C@@H]2COC(=O)c2cc(O)c(O)c(O)c2-3)c1` was run?
Its inhibition is “Active”.

And the inhibition [2]?
Its inhibition is “Active”.

What about the inhibition [3] of the same compound?
The inhibition was “Active”.

What about the Activity [4] of the same compound?
The Activity was “Non-toxic”.

What about the inhibition [5] of the same compound?
The inhibition was “Dose-dependent effect”.

And the inhibition [6]?
Its inhibition is “Active”.

What about the inhibition [7] of the same compound?
The inhibition was “Active”.

And the inhibition [8]?
Its inhibition is “Active”.

And the inhibition [9]?
Its inhibition is “Dose-dependent effect”.

And the inhibition [10]?
The inhibition was “Dose-dependent effect”.

And the inhibition [11]?
Its inhibition is “Active”.

What about the inhibition [12] of the same compound?
The inhibition was “Active”.

And the Activity [13]?
Its Activity is “Toxic”.

What about the inhibition [14] of the same compound?
The inhibition was “Dose-dependent effect”.

And the inhibition [15]?
The inhibition was “Active”.

And the inhibition [16]?
The inhibition was “Active”.

And the inhibition [17]?
The inhibition was “Dose-dependent effect”.

And the inhibition [18]?
Its inhibition is “Active”.

What about the inhibition [19] of the same compound?
The inhibition was “Active”.

And the inhibition [20]?
The inhibition was “Dose-dependent effect”.

What about the inhibition [21] of the same compound?
Its inhibition is “Active”.

And the inhibition [22]?
Its inhibition is “Active”.

What about the inhibition [23] of the same compound?
The inhibition was “Dose-dependent effect”.

And the inhibition [24]?
The inhibition was “Active”.

What about the inhibition [25] of the same compound?
Its inhibition is “Active”.

And the inhibition [26]?
The inhibition was “Dose-dependent effect”.

What about the inhibition [27] of the same compound?
Its inhibition is “Dose-dependent effect”.
